The values below come from US10919885B2, “Compounds and uses thereof” (Yumanity Therapeutics, Inc., priority 2018, dated 2021).

Values joined by “and” are separate entries in the source; they are usually repeats but may differ in a detail not shown here. Identical values can stand only once. A value given as a limit tells only on which side of the number the result lay.

A word on the IC50: it is the concentration needed to halve the response being measured.

Assay [1] addresses human SCD5 (Homo sapiens (Human), UniProt Q86SK9). As to the kind of experiment: Yeast growth assay, strain expressing human SCD5 as the sole desaturase (reduced growth as surrogate for SCD inhibition). The assay is classed as cell-based. Particulars: yeast with OLE1 deleted expressing human SCD5 from a plasmid; growth read as OD600 after 40 h at 30° C.; top drug concentration 33.3 μM. Here is the method:
Strains expressing SCD1 or SCD5 as the sole desaturase, the human SCD1 and SCD5 genes were used to evaluate inhibition of SCD1/SCD5 using reduced growth as a surrogate for SCD inhibition. These yeast strains express human SCD1 or SCD5 from a plasmid harbored in a strain in which the yeast OLE1 gene is deleted.
All compound profiling experiments were performed using the same basic protocol. Yeast were cultured using standard techniques in complete synthetic media lacking uracil and containing yeast nitrogen base supplemented with 2% (w/v) glucose (SD-Ura) Starter cultures were inoculated in 3 mL SD-Ura media containing 0.01% tween and 0.2 mM palmitoleic and oleic acid. Cultures were incubated overnight in a 30° C. shaker incubator (225 rpm). Saturated morning cultures were centrifuged, washed in SD-Ura media lacking TWEEN-20 and fatty acids, and then diluted 1:20 in fresh SD-Ura media also lacking TWEEN-20 and fatty acids.
Compound administration was performed in two separate steps. First, 15 μL of SD-Ura was dispensed into clear 384-well assay plates using a MULTIDROP™ Combi reagent dispenser. […] The cultures described above were centrifuged and washed with media lacking TWEEN-20 or oleic and palmitoleic acids.
After yeast delivery, assay plates were incubated under humidified conditions at 30° C. for 40 h. Yeast growth was monitored by reading the OD600 of each well using a microplate reader (Perkin Elmer EnVision™).

Assay [2] addresses human SCD1 (Homo sapiens (Human), UniProt O00767). As to the kind of experiment: Yeast growth assay, strain expressing human SCD1 as the sole desaturase (reduced growth as surrogate for SCD inhibition). The following applies: yeast with OLE1 deleted expressing human SCD1 from a plasmid; growth read as OD600 after 40 h at 30° C.; top drug concentration 33.3 μM. The assay is classed as cell-based. In outline: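 Human SCD1 or SCD5 expressed from a plasmid in OLE1-deleted yeast as the sole desaturase. Cells washed free of Tween and fatty acids, grown with compound in SD-Ura glucose medium 40 h at 30 °C; growth measured as OD600, reduced growth taken as SCD inhibition.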

Sequence of human SCD5 (Q86SK9 whole entry): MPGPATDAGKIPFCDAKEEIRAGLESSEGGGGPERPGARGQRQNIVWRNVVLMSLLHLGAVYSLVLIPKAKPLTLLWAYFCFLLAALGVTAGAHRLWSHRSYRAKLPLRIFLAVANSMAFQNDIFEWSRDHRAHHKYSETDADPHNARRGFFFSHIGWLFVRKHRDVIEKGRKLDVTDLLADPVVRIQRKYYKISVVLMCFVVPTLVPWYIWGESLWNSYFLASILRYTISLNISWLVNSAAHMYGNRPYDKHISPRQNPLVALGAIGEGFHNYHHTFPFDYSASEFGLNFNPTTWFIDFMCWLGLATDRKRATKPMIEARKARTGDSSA
Sequence of human SCD1 (O00767 whole entry): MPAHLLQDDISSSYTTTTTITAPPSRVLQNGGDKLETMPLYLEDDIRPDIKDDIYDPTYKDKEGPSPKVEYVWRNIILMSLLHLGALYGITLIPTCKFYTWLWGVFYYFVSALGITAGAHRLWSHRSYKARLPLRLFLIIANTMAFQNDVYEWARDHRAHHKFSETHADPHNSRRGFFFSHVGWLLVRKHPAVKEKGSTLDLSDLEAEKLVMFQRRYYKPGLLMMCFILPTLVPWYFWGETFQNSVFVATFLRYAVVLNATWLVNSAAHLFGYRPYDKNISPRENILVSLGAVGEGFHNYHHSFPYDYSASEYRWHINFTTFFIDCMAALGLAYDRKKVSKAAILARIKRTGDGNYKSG

`CNC(=O)c1ccccc1-c1cc(C(=O)N2CCC(c3ccccc3)CC2)no1` [Compound 301, N-methyl-2-[3-(4-phenylpiperidine-1-carbonyl)isoxazol-5-yl]benzamide]: the IC50 in assay [1] is 6.58 µM; in assay [2] it was over 45 µM.
Taken in the same sequence, the figures for `Cn1nccc1C1CCCN1C(=O)c1cc(-c2ccc3c(c2)OCO3)on1` (centres unmarked) [Compound 417] were over 45 µM and over 45 µM.
Taken in the same sequence, the figures for `O=C(c1cc(-c2ccc3c(c2)OCO3)on1)N1CCN(c2cc(F)ccc2Cl)CC1` [Compound 299, [5-(1,3-benzodioxol-5-yl)isoxazol-3-yl]-[4-(2-chloro-5-fluoro-phenyl)piperazin-1-yl]methanone] were 8.68 µM and over 45 µM.
With `O=C(NC1CN(C(=O)c2cc(-c3ccccc3)on2)C1)c1ccccc1` [Compound 240], the half-maximal inhibitory concentration (IC50) in assay [1] and in assay [2] was over 45 µM throughout.
Take `O=C(c1cc(-c2ccccc2)on1)N1CC(CCl)(CNc2ccccc2)C1` [Compound 215]: the half-maximal inhibitory concentration (IC50) in assay [1] was 1.36 µM; in assay [2] it was 1.86 µM.
`COc1ccccc1-c1cc(C(=O)Nc2cnn(Cc3ccccc3)c2)no1` [Compound 136]: the IC50 in assay [1] and in assay [2] was over 45 µM in each case.
With `COc1ccc(-c2cc(C(=O)N3CC(c4ccccc4)C3)no2)nc1` [Compound 242, (5-(5-methoxypyridin-2-yl)isoxazol-3-yl)(3-phenylazetidin-1-yl)methanone], the IC50 in assay [1] was determined as 0.305 µM; in assay [2], 0.264 µM.
Taken in the same sequence, the figures for `Cc1cnoc1C1CCCN1C(=O)c1cc(-c2ccc3c(c2)OCO3)on1` (centres unmarked) [Compound 439] were over 45 µM and over 45 µM.
With `O=C(Nc1cnn(Cc2ccccc2Cl)c1)c1cc(-c2cccc3cnn(C4COC4)c23)on1` [Compound 93], the half-maximal inhibitory concentration (IC50) in assay [1] and in assay [2] was over 45 µM throughout.
Consider `O=C(c1noc2cc(Br)ccc12)N1CCC[C@H]1c1ccccc1` [Compound 449], for which the values for the IC50 in assay [1] and in assay [2] were 41.7 µM and over 45 µM, respectively.
In the case of `O=C(Nc1cnn(Cc2ccccc2)c1)c1cc(-c2cnsc2)on1` [Compound 146], the figures for the half-maximal inhibitory concentration (IC50) in assay [1] and in assay [2] were over 45 µM and 11 µM, respectively.
For `CC(=O)N1CCN(c2cc(C(=O)Nc3cnn(Cc4ccccc4)c3)no2)CC1` [Compound 184] the same measures were over 45 µM and 29 µM.
Taken in the same sequence, the figures for `N#Cc1ccc(F)cc1Cn1cc(NC(=O)c2cc(-c3ccccc3)on2)cn1` [Compound 88] were over 45 µM and over 45 µM.
Regarding `Cn1nc(Cc2ccc(Cl)c(Cl)c2)cc1NC(=O)c1cc(-c2ccco2)on1` [Compound 27], the half-inhibitory concentration (IC50) in assay [1] and in assay [2] was over 45 µM in each case.
Take `O=C(Nc1cnn(Cc2ccccc2)c1)c1cc(-c2ccns2)on1` [Compound 126]: the values for the IC50 in assay [1] and in assay [2] were over 45 µM and 6.97 µM, respectively.
For `O=C(c1cc(-c2ccc3c(c2)OCO3)on1)N1CCCC1Cc1ccccc1` (centres unmarked) [Compound 434] the same measures were 4.67 µM and over 45 µM.
As for `O=C(c1cc(-c2ccc3c(c2)OCO3)on1)N1CCC1c1ccccc1` (centres unmarked) [Compound 204, (5-(benzo[d][1,3]dioxol-5-yl)isoxazol-3-yl)(2-phenylazetidin-1-yl)methanone], the half-inhibitory concentration (IC50) in assay [1] was 3.5 µM and 2.28 µM; in assay [2] it was 30 µM and 33.9 µM.
As for `N#Cc1ccc(-c2cc(C(=O)N3CCC(c4ccccc4)CC3)no2)cc1` [Compound 316, 4-(3-(4-phenylpiperidine-1-carbonyl)isoxazol-5-yl)benzonitrile], the IC50 in assay [1] was 0.7 µM; in assay [2], over 45 µM.
For `COc1ccc(-c2cc(C(=O)N3CC(c4ccccc4)C3)no2)nn1` [Compound 255, (5-(6-methoxypyridazin-3-yl)isoxazol-3-yl)(3-phenylazetidin-1-yl)methanone] the same measures were 1.8 µM and 23 µM.
For `O=C(c1noc2c1CCCC2)N1CC(Cc2ccccc2)C1` [Compound 253, 3-(3-benzylazetidine-1-carbonyl)-4,5,6,7-tetrahydro-1,2-benzoxazole] the same measures were 13 µM and over 45 µM.
In assay [2], `CO[C@@H]1CCN(c2cc(C(=O)Nc3cnn(Cc4ccccc4)c3)no2)C1` [Compound 188, (R)—N-(1-benzyl-1H-pyrazol-4-yl)-5-(3-methoxypyrrolidin-1-yl)isoxazole-3-carboxamide] yielded a 50% inhibitory concentration (IC50) of 0.074 µM.
The same measure, in the same setting: in the case of `O=C(Nc1cnn(Cc2ccccc2)c1)c1cc(-c2ccccc2F)on1` [Compound 38, N-(1-benzylpyrazol-4-yl)-5-(2-fluorophenyl)isoxazole-3-carboxamide] it was over 45 µM; in that of `O=C(c1cc(N2CCOCC2)on1)N1CC(c2ccccc2)C1` [Compound 248], 33 µM; in that of `O=C(c1cc(-c2ccc3c(c2)OCO3)on1)N1CC2(CC(c3ccccc3)C2)C1` [Compound 228], 37.1 µM.
Still for that read-out and setting: in the case of `Cc1cccc(C2CCCN2C(=O)c2cc(-c3ccc4c(c3)OCO4)on2)c1` (centres unmarked) [Compound 355] it was over 45 µM; in that of `CC(C)(C)OC(=O)N1CCN(C(=O)c2cc(-c3ccc4c(c3)OCO4)on2)CC1` [Compound 267], over 45 µM.
The same measure, in the same setting: in the case of `CC(C)c1cc(C(=O)N2CCC(c3cccc(F)c3)C2)no1` (centres unmarked) [Compound 350] it was over 45 µM.
For `O=C(c1cc(-c2ccc3c(c2)OCO3)on1)N1C[C@@H](F)C[C@H]1c1ccccc1` [Compound 427], it took 30 µM to reach half-maximal inhibition in assay [2] (IC50).
Same read-out and setting: in the case of `COc1ccc(C2CCCN2C(=O)c2cc(-c3cccc(OC)c3)on2)cc1` (centres unmarked) [Compound 375] it was over 45 µM; in that of `O=C(c1cc(-c2ccccc2)on1)N1CC(Cc2ccccc2)C1` [Compound 211, (3-benzylazetidin-1-yl)-(5-phenylisoxazol-3-yl)methanone], 0.12 µM; in that of `COc1ccc(C2CCCN2C(=O)c2cc(-c3ccc4c(C)nn(C)c4c3)on2)cc1` (centres unmarked) [Compound 394], over 45 µM.
Still for that read-out and setting: in the case of `O=C(c1cc(N2CCOCC2)on1)N1CCC[C@H]1c1ccccc1` [Compound 463] it was over 45 µM; in that of `O=C(Nc1cnn(Cc2ccccc2)c1)c1noc2c1CCCC2` [Compound 156, N-(1-benzyl-1H-pyrazol-4-yl)-4,5,6,7-tetrahydrobenzo[d]isoxazole-3-carboxamide], 0.01 µM; in that of `O=C(c1cc(-c2ccc3c(c2)OCO3)on1)N1CCCC1c1ccc(F)cc1` (centres unmarked) [Compound 368], over 45 µM.
The compound `C[C@@H]1CCCN1C(=O)c1cc(-c2ccc3c(c2)OCO3)on1` [Compound 370] yielded an IC50 in assay [2] of over 45 µM.
The same measure, in the same setting: in the case of `O=C(Nc1cnn(Cc2ccccc2)c1)c1cc(-c2cncs2)on1` [Compound 37, N-(1-benzylpyrazol-4-yl)-5-thiazol-5-yl-isoxazole-3-carboxamide] it was 0.26 µM.
In the case of `O=C(c1cc(-c2ccc3c(c2)OCO3)on1)N1CCOc2ccccc21` [Compound 262], the IC50 in assay [2] was over 45 µM.
Compound `CNC(=O)c1ccc(-c2cc(C(=O)N3CCC(c4ccccc4)CC3)no2)cc1` [Compound 304, N-methyl-4-[3-(4-phenylpiperidine-1-carbonyl)isoxazol-5-yl]benzamide] gave an IC50 in assay [2] of 0.38 µM.
Same read-out and setting: in the case of `CC1(c2cc(C(=O)Nc3cnn(Cc4ccccc4)c3)no2)COC1` [Compound 121] it was 0.21 µM.
